Data from patent US11485742B2, “2-azaspiro[3.4]octane derivatives as M4 agonists” (NOVARTIS AG, priority 2019, dated 2022).
pEC50: −log10 of the molar value.

Key:
[1] = molecular target: T1, Cloned human M1 receptor (CHRM1) (Homo sapiens, UniProt P11229); assay: CHRM1 Ca++ Flux Assay (HEK293 M1 cells, agonist mode); format: cell-based; settings: for Emax: Percent Activity (PA), read-out: M1 FDSS PA %; for pEC50: geometric mean if tested more than once, read-out: M1 FDSS EC50
T1 construct: expressed in transfected cells; host or cells: HEK293
T1 sequence (P11229 1-460): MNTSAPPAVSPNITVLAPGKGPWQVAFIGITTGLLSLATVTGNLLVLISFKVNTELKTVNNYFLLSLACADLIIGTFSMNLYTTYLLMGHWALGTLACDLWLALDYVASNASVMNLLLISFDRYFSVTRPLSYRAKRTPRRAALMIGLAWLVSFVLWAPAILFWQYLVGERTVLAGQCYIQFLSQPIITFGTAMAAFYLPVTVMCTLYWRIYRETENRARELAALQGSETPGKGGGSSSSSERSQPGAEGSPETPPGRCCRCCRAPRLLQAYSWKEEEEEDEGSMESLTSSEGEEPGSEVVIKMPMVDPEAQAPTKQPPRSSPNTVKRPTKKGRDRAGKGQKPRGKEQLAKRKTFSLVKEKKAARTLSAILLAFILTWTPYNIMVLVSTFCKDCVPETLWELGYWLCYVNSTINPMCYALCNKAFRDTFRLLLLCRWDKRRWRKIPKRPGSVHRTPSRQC
How it was run: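 In agonist mode, compound-induced intracellular Ca++ mobilization was recorded for 3 min by fluorescent imager. The cells were HEK293 stably expressing cloned human CHRM1, in Ca/Mg-free HBSS with 20 mM HEPES. Triplicate 11-point dose-responses were fitted by four-parameter regression and normalized to the carbachol EC100 response.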

[2] = molecular target: T2, human cloned CHRM5 receptor (Homo sapiens, UniProt P08912); assay: CHRM5 Ca++ Flux Assay (M5_CHO cells, agonist mode); format: cell-based; settings: for Emax: Percent Activity (PA) measured to EC100 of Carbachol, read-out: M5 FDSS PA %; for pEC50: agonist mode, geometric mean if tested more than once, read-out: M5 FDSS EC50
T2 construct: expressed in transfected cells; host or cells: CHO (M5_CHO)
T2 sequence (P08912 1-532): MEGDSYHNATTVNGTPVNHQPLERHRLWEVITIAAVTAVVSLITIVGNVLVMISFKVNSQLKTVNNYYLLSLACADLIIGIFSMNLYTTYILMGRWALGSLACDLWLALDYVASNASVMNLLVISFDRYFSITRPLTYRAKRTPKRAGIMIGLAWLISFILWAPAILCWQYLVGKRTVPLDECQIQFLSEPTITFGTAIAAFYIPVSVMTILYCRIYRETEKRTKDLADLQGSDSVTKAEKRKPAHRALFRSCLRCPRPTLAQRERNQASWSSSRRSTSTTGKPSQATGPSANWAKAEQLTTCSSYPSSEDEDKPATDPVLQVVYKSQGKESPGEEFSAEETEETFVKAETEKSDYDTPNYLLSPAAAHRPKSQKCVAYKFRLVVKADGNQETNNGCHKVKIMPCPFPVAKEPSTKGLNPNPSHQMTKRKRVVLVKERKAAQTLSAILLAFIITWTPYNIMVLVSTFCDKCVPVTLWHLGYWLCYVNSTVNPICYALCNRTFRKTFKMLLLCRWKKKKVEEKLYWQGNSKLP
How it was run: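 Agonist-mode calcium mobilisation: compounds, 11 concentrations in triplicate, applied to stable M3_CHO or M5_CHO cells loaded with Ca++ dye, fluorescence followed 3 min. Efficacy expressed against carbachol EC100; EC curves by four-parameter nonlinear regression, geometric mean across independent runs.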

Compound | Emax [1] [%] | pEC50 [1] | Emax [2] [%] | pEC50 [2]
Fc1ccc(OC2COC2)c(C2CCN([C@@H]3COC4(C3)CN(c3ncon3)C4)CC2)c1 [Example 6B, (S)-7-(4-(5-fluoro-2-(oxetan-3-yloxy)phenyl)piperidin-1-yl)-2-(1,2,4-oxadiazol-3-yl)-5-oxa-2-azaspiro[3.4]octane] | 88 | 6.31 | 0 | < 4.60
Fc1ccc(OC2CC3(COC3)C2)c(C2CCN([C@@H]3COC4(C3)CN(c3ncon3)C4)CC2)c1 [Example 6C, (S)-7-(4-(2-((2-oxaspiro[3.3]heptan-6-yl)oxy)-5-fluorophenyl)piperidin-1-yl)-2-(1,2,4-oxadiazol-3-yl)-5-oxa-2-azaspiro[3.4]octane] | 65 | 5.62 | 0 | < 4.60
Fc1ccc(OC2CC3(COC3)C2)c(C2CCN([C@H]3COC4(C3)CN(c3nnco3)C4)CC2)c1 [Example 7A, (R)-7-(4-(2-((2-oxaspiro[3.3]heptan-6-yl)oxy)-5-fluorophenyl)piperidin-1-yl)-2-(1,3,4-oxadiazol-2-yl)-5-oxa-2-azaspiro[3.4]octane] | 0 | < 4.60 | 0 | < 4.60
